Earlier results on 1 sequence are cited in PMC11860437, “Gold Nanoparticles as a Platform for Delivery of Immunogenic Peptides to THP-1 Derived Macrophages: Insights into Nanotoxicity” (Vaccines, 2025).

One data set relates to HeLa, A549, and CHO. The settings on record: three cell lines (HeLa, A549, and CHO). The text has this:
(§1) The cytotoxicity of p-Au68 was particularly high when conjugated with peptides p2 (~30–50% cell death) and p4 (~40–60% cell death). […] These peptides differ from each other by the presence of the arginine-rich TAT peptide (YGRKKRRQRRR). It is noteworthy that pTAT-functionalized NPs are considered a promising approach to overcome ...

Data set [1] has as its system K562 human erythroleukemia cells.
Text: as §1

YGRKKRRQRRR [pTAT]: the toxicity result in the data set on HeLa, A549, and CHO is given as “low toxicity”. In addition, in data set [1], the membrane toxicity entry is “completely innocuous”.
